Assay results taken from patent US20100216703A1, “Inhibitors of PDE4 and Methods of Use” (THE REGENTS OF THE UNIVERSITY OF CALIFORNIA, priority 2006, published 2010).
Entries after “also recorded” stand apart in the source; their conditions may differ.

Key:
NIH3T3p75NTR cells [1] = test: Competitive binding cAMP ELISA; assay type: cell-based; settings: 16 h; PTX 100 ng/ml, IBMX 500 μM, PDE1 inh. 18.7 μM, EHNA 80 μM, trequinsin 100 nM, rolipram 10 μM, PDE5 inh. 23 μM
Description: (§1) […] fibroblasts or 500,000 SCs were lysed in 0.1 N HCl solution and cAMP was measured using a competitive binding cAMP ELISA (Assay Designs). Cells were treated with 100 ng/ml PTX for 16 h. […] Cells were treated with forskolin in the presence of the inhibitors for 1 h. […] For the qualitative and quantitative PKA assay (Promega), cells were treated with 10 μM forskolin for 30 min, lysed in 1% NP-40 buffer with 150 mM NaCl, 50 mM Tris, and 1 mM EGTA, and protein concentration was determined using the Bradford Assay (Bio-Rad Laboratories). 1 μg was loaded into the PKA assay reaction mix according to the manufacturer's protocol (Promega).

[2] = tested on: LPS-induced lung fibrosis; test: LPS-induced lung fibrosis / acute lung injury; assay type: in vivo, mouse
Description: Animals, sciatic nerve crush, and induction of lung fibrosis p75NTR−/− mice (Lee et al., 1992) and tPA−/− mice (Carmeliet et al., 1994) were in C57B1/6 background and purchased from The Jackson Laboratory. Double p75NTR−/−tPA−/− mice were generated by crossing p75NTR−/− mice with tPA−/− mice. C57B1/6J mice were used as controls. Sciatic nerve crush was performed as described previously (Akassoglou et al., 2000). Lung fibrosis was induced as described previously (Chen et al., 2004). For the rolipram treatments, mice were administered 5 mg/kg rolipram (Calbiochem) before the LPS injection as described previously (Miotla et al., 1998). Mice were killed 4.5 h after LPS or saline administration. For rolipram treatment after sciatic nerve injury, mice were injected with rolipram (1 mg/kg) once daily for 8 d until tissue was harvested and processed for immunostaining. Immunohistochemistry was performed as described in Akassoglou et al. (2002). Primary antibodies were sheep anti-human fibrin(ogen) (1:200; US Biologicals), rabbit anti-human tPA ( 1/300; Molecular Innovations), rabbit anti-p75NTR clone 9651, (1:1,000), goat anti-p75NTR ( 1/200; Santa Cruz Biotechnology, Inc.), rabbit anti-mouse PAI-1 (1:500; a gift from David Loskutoff, Scripps Research Institute, La Jolla, Calif.), and mouse anti-S100 (1:200; Neomarkers). For immunofluorescence, secondary antibodies were anti-rabbit FITC and anti-goat Cy3 (1:200; Jackson Immunochemicals). Images were acquired with an Axioplan II epifluorescence microscope (Carl Zeiss Microlmaging, Inc.) using dry Plan-Neofluar lenses using 10×0.3 NA, 20×0.5 NA, or 40×0.75 NA objectives equipped with Axiocam HRc digital camera and the Axiovision image analysis system. Immunoblot was performed as described previously (Akassoglou et al., 2002). Antibodies used were rabbit anti-p75NTR clones 9992 and 9651 (1:5,000), mouse anti-fibrin (1:500; Accurate Chemical & Scientific Corp.), rabbit anti-myosin (1:1,000; Sigma-Aldrich), rabbit anti-GAPDH (1:5,000; Abcam) and rabbit anti-PAI-1 (1:5,000; a gift of David Loskutoff). Quantification was performed on the Scion NIH Imaging Software. Fibrin precipitation and quantification from lung tissues was performed exactly as described previously (Ling et al., 2004). RT-PCR was performed as described previously (Akassoglou et al., 2002). Primers for tPA, uPA, and PAI-1 genes were used as described previously (Yamamoto and Loskutoff, 1996). Real-time PCR was performed using the Opticon DNA Engine 2 (MJ Research) and the Quantitect SYBR Green PCR kit (QIAGEN). Results were analyzed with Opticon 2 software using the comparative Ct method as described previously (Livak and Schmittgen, 2001). Data were expressed as ΔΔCt for the tPA gene normalized against GAPDH.

PDE4 = settings: cited from earlier work
[3] = tested on: sciatic nerve crush injury; test: Sciatic nerve crush injury; assay type: in vivo, mouse; settings: wt nerves 8 days after crush; rolipram 1 mg/kg once daily for 8 d
Description: Animals, sciatic nerve crush, and induction of lung fibrosis p75NTR−/− mice (Lee et al., 1992) and tPA−/− mice (Carmeliet et al., 1994) were in C57B1/6 background and purchased from The Jackson Laboratory. Double p75NTR−/−tPA−/− mice were generated by crossing p75NTR−/− mice with tPA−/− mice. C57B1/6J mice were used as controls. Sciatic nerve crush was performed as described previously (Akassoglou et al., 2000). Lung fibrosis was induced as described previously (Chen et al., 2004). For the rolipram treatments, mice were administered 5 mg/kg rolipram (Calbiochem) before the LPS injection as described previously (Miotla et al., 1998). Mice were killed 4.5 h after LPS or saline administration. For rolipram treatment after sciatic nerve injury, mice were injected with rolipram (1 mg/kg) once daily for 8 d until tissue was harvested and processed for immunostaining. Immunohistochemistry was performed as described in Akassoglou et al. (2002). Primary antibodies were sheep anti-human fibrin(ogen) (1:200; US Biologicals), rabbit anti-human tPA ( 1/300; Molecular Innovations), rabbit anti-p75NTR clone 9651, (1:1,000), goat anti-p75NTR ( 1/200; Santa Cruz Biotechnology, Inc.), rabbit anti-mouse PAI-1 (1:500; a gift from David Loskutoff, Scripps Research Institute, La Jolla, Calif.), and mouse anti-S100 (1:200; Neomarkers). […]

spinal cord injury = settings: Nikulina et al., 2004, Pearse et al.; cited from earlier work
CGNs = test: Intracellular cAMP in cerebellar granule neurons; assay type: cell-based, mouse
Description: Murine SCs were isolated as described previously (Syroid et al., 2000). NIH3T3 or HEK293 cells were cotransfected either with p75NTR FL, ICD or deletion constructs, and PDE4A5 cDNAs using Lipofectamine 2000 (Invitrogen) as described in the Results section. CGNs were isolated from P10 animals (Yamashita and Tohyama, 2003). CGNs were lysed immediately for co-IP, without plating. siRNA directed against p75NTR (Dharmacon; SMART Pool reagent, Cat. M-080041-00; Cat. M-009340) was transfected into SCs and NIH3T3p75NTR cells using Dharmafect (Dharmacon).
as §1

NIH3T3p75NTR cells [4] = test: Quantification of tPA activity; assay type: cell-based; settings: 10 μM forskolin 16 h; 200 nM KT5720; IBMX; rolipram
Description: Quantification of tPA and uPA activity in SC and fibroblast in lysates and supernatants was performed according to the directions of the activity assay kits from American Diagnostica and Chemicon, respectively. To elevate cAMP cells were treated either with 2 mM db-cAMP (Sigma-Aldrich) or with 10 μM forskolin (Sigma-Aldrich) for 16 h. To block PKA activity, cells were treated with 200 nM KT5720 (Calbiochem).

Primary CGNs = test: Myelin inhibition of neurite outgrowth; assay type: cell-based, mouse; settings: 24 hrs, myelin 1 μg/well, poly-D-lysine

Row | Compound | intracellular cAMP levels in NIH3T3p75NTR cells (NIH3T3p75NTR cells [1]) | fibrin deposition in the lung ([2]; 5 mg/kg rolipram before LPS, vs LPS alone) | decrease in fibrin, rolipram vs. control treated wt lungs ([2]; 5 mg/kg rolipram before LPS, killed 4.5 h after LPS) [%] | PAI-1 in the lung after LPS (quantitative PCR of transcripts) ([2]; LPS + rolipram) | PAI-1 transcripts in the lung, rolipram treatment alone ([2]; no LPS) | PDE4 isoform selectivity (PDE4; background statement) | IC50 (PDE4) [nM] | fibrin deposition in the sciatic nerve [3] | axonal regeneration and functional recovery (spinal cord injury) | intracellular cAMP in p75NTR−/− CGNs (CGNs; p75NTR−/− cells) | intracellular cAMP in wild-type CGNs (CGNs; wild-type cells) | tPA activity in NIH3T3p75NTR cells (NIH3T3p75NTR cells [4]) | myelin inhibition of neurite outgrowth (Primary CGNs)
1 | COc1ccc(C2CNC(=O)C2)cc1OC1CCCC1 (stereo not shown) [rolipram] | increase intracellular levels of cAMP; also recorded: increase levels of cAMP in NIH3T3p75NTR cells to the levels of NIH3T3 cells; also recorded: significantly increases cAMP levels | decreased in the lung; also recorded: reduces fibrin deposition; also recorded: decreases fibrin deposition | 34 | reduction of LPS-induced PAI-1 upregulation; also recorded: decreases PAI-1 | no effect | […] | […] | decreased levels of fibrin deposition; also recorded: statistically significant reduction of fibrin deposition; also recorded: reduces fibrin deposition; also recorded: decreases fibrin deposition | […] | no significant increase | four-fold increase in intracellular cAMP | increase of tPA levels | 
2 | YGRKKRRQRRRSPLDSQASPGLVLHAGATTSQRRES (listed as Homo sapiens) [peptide 25] |  |  |  |  |  |  |  |  |  |  |  |  | did not overcome myelin inhibition of neurite outgrowth
